Positions of bridges follow the written chain, without caps; N, C: chain ends. Non-standard residues stand in square brackets, D forms with d. Residues, ends and D or L forms follow the SMILES beside them. *: point of attachment. Trp(1-CH2COOH) = N[C@@H](Cc1cn(CC(=O)O)c2ccccc12)C(=O)O; Nle(6-morpholino) = N[C@@H](CCCCN1CCOCC1)C(=O)O; Phe(3-COOH) = N[C@@H](Cc1cccc(C(=O)O)c1)C(=O)O; Trp(7-aza) = N[C@@H](Cc1c[nH]c2ncccc12)C(=O)O; NH(CH2CH2O)8Me = COCCOCCOCCOCCOCCOCCOCCOCCN*; NMePhe(3-Cl) = CN[C@@H](Cc1cccc(Cl)c1)C(=O)O; 3Pal(6-NH2) = Nc1ccc(C[C@H](N)C(=O)O)cn1; NMeY = CN[C@@H](Cc1ccc(O)cc1)C(=O)O; 3Pal = N[C@@H](Cc1cccnc1)C(=O)O; 4Pal = N[C@@H](Cc1ccncc1)C(=O)O; PEG4 = NCCOCCOCCOCCOCCC(=O)O; Carboxymethyl = O=C(O)C* Bounds are passed on as bounds.

T1 sequence (P02786 89-760 limits assumed): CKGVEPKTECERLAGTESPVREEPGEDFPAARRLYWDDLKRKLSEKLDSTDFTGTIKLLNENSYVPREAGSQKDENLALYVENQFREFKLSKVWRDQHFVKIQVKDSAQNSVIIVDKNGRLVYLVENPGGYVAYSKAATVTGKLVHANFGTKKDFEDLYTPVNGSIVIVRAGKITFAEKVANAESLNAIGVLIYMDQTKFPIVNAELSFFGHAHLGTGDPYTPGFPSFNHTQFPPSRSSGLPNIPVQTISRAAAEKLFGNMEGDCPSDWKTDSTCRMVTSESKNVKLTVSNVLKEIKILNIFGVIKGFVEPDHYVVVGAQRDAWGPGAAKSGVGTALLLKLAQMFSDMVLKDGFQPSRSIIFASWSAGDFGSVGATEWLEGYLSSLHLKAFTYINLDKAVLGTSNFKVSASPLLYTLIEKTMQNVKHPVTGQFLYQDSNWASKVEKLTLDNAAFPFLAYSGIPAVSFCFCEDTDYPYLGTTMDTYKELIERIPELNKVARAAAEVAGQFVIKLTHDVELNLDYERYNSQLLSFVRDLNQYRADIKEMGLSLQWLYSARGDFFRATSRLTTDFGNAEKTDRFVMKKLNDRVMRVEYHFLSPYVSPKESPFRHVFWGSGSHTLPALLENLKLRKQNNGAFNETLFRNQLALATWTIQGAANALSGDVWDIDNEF

One assay addresses T1, human transferrin receptor (hTfR) (Homo sapiens, UniProt P02786).
T1 construct: made in house
Briefly: Evaluation of molecular interaction between transferrin receptor (hTfR) and peptide using surface plasmon resonance (SPR). Format: binding. Particulars: KD class for binding to hTfR by SPR; peptide with the linker shown in the same line; 'low signal indicates no activity'; read-out: SPR. The method, boiled down:
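Binding kinetics of peptides to immobilized recombinant human TfR dimer were measured by SPR at 5–100 nM in a single-cycle format, with KD obtained from curve fitting.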
For orientation: In SPR one partner is held on a chip, and binding of the other changes the refractive index at the surface.
On to `CC[C@H](C)[C@@H]1NC(=O)[C@H](Cc2ccc(OCC(=O)O)cc2)NC(=O)[C@H](Cc2ccc(O)cc2)NC(=O)[C@H](CC(N)=O)NC(=O)[C@H](Cc2cn(CC(=O)O)c3ccccc23)NC(=O)[C@H](C(C)C)NC(=O)[C@H](Cc2cccc(Cl)c2)N(C)C(=O)[C@H](C(C)C)NC(=O)[C@H](C)NC(=O)CSC[C@@H](C(=O)NCCOCCOCCOCCOCCC(N)=O)NC(=O)[C@H](Cc2ccc(O)cc2)N(C)C(=O)[C@H](Cc2ccccc2)NC(=O)[C@H](CCCCN2CCOCC2)NC(=O)[C@H](CCCNC(=N)N)NC(=O)[C@H]([C@@H](C)CC)NC1=O` [894_0389] ({CH2CO}-AV[NMePhe(3-Cl)]V[Trp(1-CH2COOH)]NYY(Carboxymethyl)IIR[Nle(6-morpholino)]F[NMeY]C[PEG4]-NH2; thioether N-15), for which the Kd is below 1 nM.

Turning to `CC[C@H](C)[C@@H]1NC(=O)[C@H](Cc2ccc(OCC(=O)O)cc2)NC(=O)[C@H](Cc2ccc(O)cc2)NC(=O)[C@H](CC(N)=O)NC(=O)[C@H](Cc2cn(CC(=O)O)c3ccccc23)NC(=O)[C@H](C(C)C)NC(=O)[C@H](Cc2cccc(Cl)c2)N(C)C(=O)[C@H](C(C)C)NC(=O)[C@H](C)NC(=O)CSC[C@@H](C(=O)NCCOCCOCCOCCOCCC(N)=O)NC(=O)[C@H](Cc2ccc(O)cc2)N(C)C(=O)[C@H](Cc2ccccc2)NC(=O)[C@H](CCC(=O)N2CCN(CC(=O)O)CC2)NC(=O)[C@H](CCCNC(=N)N)NC(=O)[C@H]([C@@H](C)CC)NC1=O` [894_0384], the Kd lay in the range of 1 to 100 nM.

Take `CC[C@H](C)[C@@H]1NC(=O)[C@H](Cc2ccc(OC)cc2)NC(=O)[C@H](Cc2ccc(O)cc2)NC(=O)[C@H](CC(N)=O)NC(=O)[C@H](Cc2c[nH]c3ccc(Cl)cc23)NC(=O)[C@H](C(C)C)NC(=O)[C@H](Cc2ccc(F)cc2)N(C)C(=O)[C@H](C(C)C)NC(=O)[C@H](C)NC(=O)CSC[C@@H](C(=O)NCC(=O)N[C@@H](CCCCN=[N+]=[N-])C(N)=O)NC(=O)[C@H](Cc2ccc(O)cc2)N(C)C(=O)[C@H](Cc2ccc(O)cc2)NC(=O)[C@H](CCCNC(=N)N)NC(=O)[C@H](CCCNC(=N)N)NC(=O)[C@H]([C@@H](C)CC)NC1=O` [894_3163]: the Kd lay within 1 to 100 nM.

As for `CC[C@H](C)[C@@H]1NC(=O)[C@H](Cc2ccc(OC)cc2)NC(=O)[C@H](Cc2ccc(N)nc2)NC(=O)[C@H](CC(N)=O)NC(=O)[C@H](Cc2c[nH]c3ccccc23)NC(=O)[C@H](C(C)C)NC(=O)[C@H](Cc2cccc(Cl)c2)N(C)C(=O)[C@H](C(C)C)NC(=O)[C@H](C)NC(=O)CSC[C@@H](C(=O)NCCOCCOCCOCCOCCC(N)=O)NC(=O)[C@H](Cc2ccc(O)cc2)N(C)C(=O)[C@H](Cc2cccc(C(=O)O)c2)NC(=O)[C@H](CCCNC(=N)N)NC(=O)[C@H](CCCNC(=N)N)NC(=O)[C@H]([C@@H](C)CC)NC1=O` [894_0359] ({CH2CO}-AV[NMePhe(3-Cl)]VWN[3Pal(6-NH2)]Y(Me)IIRR[Phe(3-COOH)][NMeY]C[PEG4]-NH2; thioether N-15), the Kd was in the range of 1 to 100 nM.

For `CC[C@H](C)[C@@H]1NC(=O)[C@H](Cc2ccc(OCC(=O)O)cc2)NC(=O)[C@H](Cc2ccc(N)nc2)NC(=O)[C@H](CC(N)=O)NC(=O)[C@H](Cc2c[nH]c3ccccc23)NC(=O)[C@H](C(C)C)NC(=O)[C@H](Cc2cccc(Cl)c2)N(C)C(=O)[C@H](C(C)C)NC(=O)[C@H](C)NC(=O)CSC[C@@H](C(=O)NCCOCCOCCOCCOCCC(N)=O)NC(=O)[C@H](Cc2ccc(O)cc2)N(C)C(=O)[C@H](Cc2ccccc2)NC(=O)[C@H](CCCNC(=N)N)NC(=O)[C@H](CCCNC(=N)N)NC(=O)[C@H]([C@@H](C)CC)NC1=O` [894_0358] ({CH2CO}-AV[NMePhe(3-Cl)]VWN[3Pal(6-NH2)]Y(Carboxymethyl)IIRRF[NMeY]C[PEG4]-NH2; thioether N-15), the Kd lay within 1 to 100 nM.

`CC[C@H](C)[C@@H]1NC(=O)[C@H](Cc2ccc(OC)cc2)NC(=O)[C@H](Cc2ccc(O)cc2)NC(=O)[C@H](CC(N)=O)NC(=O)[C@H](Cc2cn(CC(=O)O)c3ccccc23)NC(=O)[C@H](C(C)C)NC(=O)[C@H](Cc2cccc(Cl)c2)N(C)C(=O)[C@H](C(C)C)NC(=O)[C@H](C)NC(=O)CSC[C@@H](C(=O)NCCOCCOCCOCCOCCC(N)=O)NC(=O)[C@H](Cc2ccc(O)cc2)N(C)C(=O)[C@H](Cc2ccncc2)NC(=O)[C@H](CCCNC(=N)N)NC(=O)[C@H](CCCNC(=N)N)NC(=O)[C@H]([C@@H](C)CC)NC1=O` [894_0335]: the Kd was in the range of 1 to 100 nM.

Staying with this assay, now noted: peptide with linker, surface plasmon resonance; read-out: SPR (KD class for binding to hTfR).
With `CC[C@H](C)[C@@H]1NC(=O)[C@H](Cc2ccc(OC)cc2)NC(=O)[C@H](Cc2ccc(O)cc2)NC(=O)[C@H](CC(N)=O)NC(=O)[C@H](Cc2c[nH]c3ncccc23)NC(=O)[C@H](C(C)C)NC(=O)[C@H](Cc2cccc(Cl)c2)N(C)C(=O)[C@H](C(C)C)NC(=O)[C@H](C)NC(=O)CSC[C@@H](C(=O)NCCOCCOCCOCCOCCC(N)=O)NC(=O)[C@H](Cc2ccc(O)cc2)N(C)C(=O)[C@H](CCC(=O)NCCOCCOCCOCCOCCOCCOCCOCCOC)NC(=O)[C@H](CCCCN2CCOCC2)NC(=O)[C@H](CCC(=O)NCCOCCOCCOCCOCCOCCOCCOCCOC)NC(=O)[C@H]([C@@H](C)CC)NC1=O` [compound 235] ({CH2CO}-AV[NMePhe(3-Cl)]V[Trp(7-aza)]NYY(Me)IIE(NH(CH2CH2O)8Me)[Nle(6-morpholino)]E(NH(CH2CH2O)8Me)[NMeY]C[PEG4]-NH2; thioether N-15), the Kd was in the range of 1 to 100 nM.

The assay is the same for the next values; noted with them: surface plasmon resonance, binding to hTfR; KD class symbol; read-out: SPR (KD value).
As to `CC[C@H](C)[C@@H]1NC(=O)[C@H](Cc2ccc(OC)cc2)NC(=O)[C@H](Cc2ccc(O)cc2)NC(=O)[C@H](CC(N)=O)NC(=O)[C@H](Cc2c[nH]c3ccc(Cl)cc23)NC(=O)[C@H](C(C)C)NC(=O)[C@H](Cc2ccc(F)cc2)N(C)C(=O)[C@H](C(C)C)NC(=O)[C@H](C)NC(=O)CSC[C@@H](C(=O)NCCOCCOCCOCCOCCC(N)=O)NC(=O)[C@H](Cc2ccc(O)cc2)N(C)C(=O)[C@H](Cc2ccccc2)NC(=O)[C@@H](CCCNC(=N)N)NC(=O)[C@H](CCCNC(=N)N)NC(=O)[C@H]([C@@H](C)CC)NC1=O` [compound 26], the Kd lay in the range of 1 to 100 nM.

As to `CC[C@H](C)[C@@H]1NC(=O)[C@H](Cc2cccnc2)NC(=O)[C@H](Cc2ccc(N)nc2)NC(=O)[C@H](CC(N)=O)NC(=O)[C@H](Cc2cn(CC(=O)O)c3ccccc23)NC(=O)[C@H](C(C)C)NC(=O)[C@H](Cc2cccc(Cl)c2)N(C)C(=O)[C@H](C(C)C)NC(=O)[C@H](C)NC(=O)CSC[C@@H](C(=O)NCCOCCOCCOCCOCCC(N)=O)NC(=O)[C@H](Cc2ccc(O)cc2)N(C)C(=O)[C@H](Cc2cccc(C(=O)O)c2)NC(=O)[C@H](CCCNC(=N)N)NC(=O)[C@H](CCCNC(=N)N)NC(=O)[C@H]([C@@H](C)CC)NC1=O` [compound 79] ({CH2CO}-AV[NMePhe(3-Cl)]V[Trp(1-CH2COOH)]N[3Pal(6-NH2)][3Pal]IIRR[Phe(3-COOH)][NMeY]C[PEG4]-NH2; thioether N-15), the Kd lay in the range of 1 to 100 nM.

As for `CC[C@H](C)[C@@H]1NC(=O)[C@H](Cc2ccc(OC)cc2)NC(=O)[C@H](Cc2ccc(O)cc2)NC(=O)[C@H](CC(N)=O)NC(=O)[C@H](Cc2c[nH]c3ccccc23)NC(=O)[C@H](C(C)C)NC(=O)[C@H](Cc2ccncc2)N(C)C(=O)[C@H](C(C)C)NC(=O)[C@H](C)NC(=O)CSC[C@@H](C(=O)NCCOCCOCCOCCOCCC(N)=O)NC(=O)[C@H](Cc2ccc(O)cc2)N(C)C(=O)[C@H](Cc2ccccc2)NC(=O)[C@H](CCCNC(=N)N)NC(=O)[C@H](CCCNC(=N)N)NC(=O)[C@H]([C@@H](C)CC)NC1=O` [compound 56], the Kd lay in the range of 1 to 100 nM.

`CC[C@H](C)[C@@H]1NC(=O)[C@H](Cc2ccc(OCC(=O)O)cc2)NC(=O)[C@H](Cc2ccc(O)cc2)NC(=O)[C@H](CC(N)=O)NC(=O)[C@H](Cc2c[nH]c3ncccc23)NC(=O)[C@H](C(C)C)NC(=O)[C@H](Cc2cccc(Cl)c2)N(C)C(=O)[C@H](C(C)C)NC(=O)[C@H](C)NC(=O)CSC[C@@H](C(=O)NCCOCCOCCOCCOCCC(N)=O)NC(=O)[C@H](Cc2ccc(O)cc2)N(C)C(=O)[C@H](Cc2cccc(C(=O)O)c2)NC(=O)[C@H](CCCCN2CCOCC2)NC(=O)[C@H](CCC(N)=O)NC(=O)[C@H]([C@@H](C)CC)NC1=O` [compound 140] ({CH2CO}-AV[NMePhe(3-Cl)]V[Trp(7-aza)]NYY(Carboxymethyl)IIQ[Nle(6-morpholino)][Phe(3-COOH)][NMeY]C[PEG4]-NH2; thioether N-15): the Kd lay in the range of 1 to 100 nM.

In the case of `CC[C@H](C)[C@@H]1NC(=O)[C@H](Cc2ccc(OCC(=O)O)cc2)NC(=O)[C@H](Cc2ccc(O)cc2)NC(=O)[C@H](CC(N)=O)NC(=O)[C@H](Cc2cn(CC(=O)O)c3ccccc23)NC(=O)[C@H](C(C)C)NC(=O)[C@H](Cc2cccc(Cl)c2)N(C)C(=O)[C@H](C(C)C)NC(=O)[C@H](C)NC(=O)CSC[C@@H](C(=O)NCCOCCOCCOCCOCCC(N)=O)NC(=O)[C@H](Cc2ccc(O)cc2)N(C)C(=O)[C@H](Cc2ccccc2)NC(=O)[C@H](CCC(N)=O)NC(=O)[C@H](CCCNC(=N)N)NC(=O)[C@H]([C@@H](C)CC)NC1=O` [compound 105], the Kd lay in the range of 1 to 100 nM.

Consider `CC[C@H](C)[C@@H]1NC(=O)[C@H](Cc2ccncc2)NC(=O)[C@H](Cc2ccc(N)nc2)NC(=O)[C@H](CC(N)=O)NC(=O)[C@H](Cc2c[nH]c3ccccc23)NC(=O)[C@H](C(C)C)NC(=O)[C@H](Cc2cccc(Cl)c2)N(C)C(=O)[C@H](C(C)C)NC(=O)[C@H](C)NC(=O)CSC[C@@H](C(=O)NCCOCCOCCOCCOCCC(N)=O)NC(=O)[C@H](Cc2ccc(O)cc2)N(C)C(=O)[C@H](Cc2ccncc2)NC(=O)[C@H](CCCNC(=N)N)NC(=O)[C@H](CCCNC(=N)N)NC(=O)[C@H]([C@@H](C)CC)NC1=O` [compound 62] ({CH2CO}-AV[NMePhe(3-Cl)]VWN[3Pal(6-NH2)][4Pal]IIRR[4Pal][NMeY]C[PEG4]-NH2; thioether N-15), for which the Kd was 1 to 100 nM.

For the origin of these results see patent US20260116920A1, “HUMAN TRANSFERRIN RECEPTOR BINDING PEPTIDE” (PEPTIDREAM INC., priority 2021, published 2026).
